# Literature values in paper PMC10458458, “Characterization of Anticancer Effects of the Analogs of DJ4, a Novel Selective Inhibitor of ROCK and MRCK Kinases” (Pharmaceuticals, 2023).
# Tests used:
# HeLa cells = tested on: HeLa cells; set-up: method as in PMID 10779382; settings: >100 µM; cited from earlier work
# astrocytes = tested on: astrocytes; set-up: method as in PMID 22929997; settings: 10 µM; cited from earlier work
compound,measurement,setting,value
"C[C@@H](N)[C@H]1CC[C@H](C(=O)Nc2ccncc2)CC1 [Compound Y27632, Y27632]",effect on cytokinesis,HeLa cells,impaired cytokinesis
same,effect on proliferation and cell cycle,astrocytes,promoted proliferation and progression of the cell cycle
